According to PubChem BioAssay (NCI):
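48-hour exposure; five concentrations; linearly interpolated endpoints. TGI marks complete inhibition of growth.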

How the values were obtained:
Test in all cases: NCI anticancer screen, dose series, 48 h
786-0 renal = system: 786-0 renal
A498 renal = system: A498 renal
A549 NSCLC = system: A549 NSCLC
ACHN renal = system: ACHN renal
CAKI-1 renal = system: CAKI-1 renal
CCRF-CEM leukemia = system: CCRF-CEM leukemia
COLO 205 colon = system: COLO 205 colon
DLD-1 colon = system: DLD-1 colon
DMS 114 small cell lung = system: DMS 114 small cell lung
DMS 273 small cell lung = system: DMS 273 small cell lung
EKVX NSCLC = system: EKVX NSCLC
HCC-2998 colon = system: HCC-2998 colon
HCT-116 colon = system: HCT-116 colon
HCT-15 colon = system: HCT-15 colon
HL-60(TB) leukemia = system: HL-60(TB) leukemia
HOP-62 NSCLC = system: HOP-62 NSCLC
HOP-92 NSCLC = system: HOP-92 NSCLC
HT29 colon = system: HT29 colon
IGROV1 ovarian = system: IGROV1 ovarian
K-562 leukemia = system: K-562 leukemia
KM12 colon = system: KM12 colon
KM20L2 colon = system: KM20L2 colon
LOX IMVI melanoma = system: LOX IMVI melanoma
LXFL 529 NSCLC = system: LXFL 529 NSCLC
M14 melanoma = system: M14 melanoma
M19-MEL melanoma = system: M19-MEL melanoma
MALME-3M melanoma = system: MALME-3M melanoma
MOLT-4 leukemia = system: MOLT-4 leukemia
NCI-H226 lung = system: NCI-H226 lung
NCI-H23 lung = system: NCI-H23 lung
NCI-H460 lung = system: NCI-H460 lung
NCI-H522 lung = system: NCI-H522 lung
OVCAR-3 ovarian = system: OVCAR-3 ovarian
OVCAR-4 ovarian = system: OVCAR-4 ovarian
OVCAR-5 ovarian = system: OVCAR-5 ovarian
OVCAR-8 ovarian = system: OVCAR-8 ovarian
RPMI-8226 leukemia = system: RPMI-8226 leukemia
RXF 393 renal = system: RXF 393 renal
SF-268 CNS = system: SF-268 CNS
SF-295 CNS = system: SF-295 CNS
SF-539 CNS = system: SF-539 CNS
SK-MEL-2 melanoma = system: SK-MEL-2 melanoma
SK-MEL-28 melanoma = system: SK-MEL-28 melanoma
SK-MEL-5 melanoma = system: SK-MEL-5 melanoma
SK-OV-3 ovarian = system: SK-OV-3 ovarian
SN12C renal = system: SN12C renal
SNB-19 CNS = system: SNB-19 CNS
SNB-75 CNS = system: SNB-75 CNS
SNB-78 CNS = system: SNB-78 CNS
SR leukemia = system: SR leukemia
SW-620 colon = system: SW-620 colon
TK-10 renal = system: TK-10 renal
U251 CNS = system: U251 CNS
UACC-257 melanoma = system: UACC-257 melanoma
UACC-62 melanoma = system: UACC-62 melanoma
UO-31 renal = system: UO-31 renal
XF 498 CNS = system: XF 498 CNS

## COc1ccc2nc3cc(Cl)ccc3c(NC(C)CCCN(CCCl)CCCl)c2c1 (stereo not given)
786-0 renal
  TGI: 3.87 µM
A498 renal
  TGI: 18.7 µM
A549 NSCLC
  TGI: 7.04 µM
ACHN renal
  TGI: 3.17 µM
CAKI-1 renal
  TGI: 13.9 µM
CCRF-CEM leukemia
  TGI: 1.12 µM
COLO 205 colon
  TGI: 2.15 µM
DLD-1 colon
  TGI: 4.1 µM
DMS 114 small cell lung
  TGI: 11.4 µM
DMS 273 small cell lung
  TGI: 2.27 µM
EKVX NSCLC
  TGI: 18.2 µM
HCC-2998 colon
  TGI: 9.61 µM
HCT-116 colon
  TGI: 1.5 µM
HCT-15 colon
  TGI: 6.56 µM
HL-60(TB) leukemia
  TGI: 0.94 µM
HOP-62 NSCLC
  TGI: 7.38 µM
HOP-92 NSCLC
  TGI: 3.62 µM
HT29 colon
  TGI: 2.81 µM
IGROV1 ovarian
  TGI: 7.11 µM
K-562 leukemia
  TGI: 2.3 µM
KM12 colon
  TGI: 4.6 µM
KM20L2 colon
  TGI: 5.73 µM
LOX IMVI melanoma
  TGI: 1.17 µM
LXFL 529 NSCLC
  TGI: 2.5 µM
M14 melanoma
  TGI: 2.78 µM
M19-MEL melanoma
  TGI: 8.78 µM
MALME-3M melanoma
  TGI: 9.63 µM
MOLT-4 leukemia
  TGI: 0.344 µM
NCI-H226 lung
  TGI: 3.44 µM
NCI-H23 lung
  TGI: 2.89 µM
NCI-H460 lung
  TGI: 1.58 µM
NCI-H522 lung
  TGI: 2.24 µM
OVCAR-3 ovarian
  TGI: 6.87 µM
OVCAR-4 ovarian
  TGI: 4.33 µM
OVCAR-5 ovarian
  TGI: 8 µM
OVCAR-8 ovarian
  TGI: 4.32 µM
RPMI-8226 leukemia
  TGI: 2.93 µM
RXF 393 renal
  TGI: 4.9 µM
SF-268 CNS
  TGI: 4.28 µM
SF-295 CNS
  TGI: 10.6 µM
SF-539 CNS
  TGI: 3 µM
SK-MEL-2 melanoma
  TGI: 4.54 µM
SK-MEL-28 melanoma
  TGI: 18.4 µM
SK-MEL-5 melanoma
  TGI: 7.89 µM
SK-OV-3 ovarian
  TGI: 6.59 µM
SN12C renal
  TGI: 8.66 µM
SNB-19 CNS
  TGI: 7.15 µM
SNB-75 CNS
  TGI: 8.98 µM
SNB-78 CNS
  TGI: 7.38 µM
SR leukemia
  TGI: 0.502 µM
SW-620 colon
  TGI: 2.07 µM
TK-10 renal
  TGI: 6.04 µM
U251 CNS
  TGI: 5.65 µM
UACC-257 melanoma
  TGI: 14.9 µM
UACC-62 melanoma
  TGI: 2.41 µM
UO-31 renal
  TGI: 11 µM
XF 498 CNS
  TGI: 4.43 µM

## Cc1ccccc1C(CCCO)C(=O)O (stereo not given)
786-0 renal
  TGI: > 100 µM
A498 renal
  TGI: > 100 µM
A549 NSCLC
  TGI: > 100 µM
ACHN renal
  TGI: > 100 µM
CAKI-1 renal
  TGI: > 100 µM
CCRF-CEM leukemia
  TGI: > 100 µM
COLO 205 colon
  TGI: > 100 µM
DLD-1 colon
  TGI: > 100 µM
DMS 114 small cell lung
  TGI: > 100 µM
DMS 273 small cell lung
  TGI: > 100 µM
EKVX NSCLC
  TGI: > 100 µM
HCT-116 colon
  TGI: > 100 µM
HCT-15 colon
  TGI: > 100 µM
HL-60(TB) leukemia
  TGI: > 100 µM
HOP-62 NSCLC
  TGI: > 100 µM
HOP-92 NSCLC
  TGI: > 100 µM
HT29 colon
  TGI: > 100 µM
IGROV1 ovarian
  TGI: > 100 µM
K-562 leukemia
  TGI: > 100 µM
KM12 colon
  TGI: > 100 µM
LOX IMVI melanoma
  TGI: > 100 µM
LXFL 529 NSCLC
  TGI: > 100 µM
M14 melanoma
  TGI: > 100 µM
M19-MEL melanoma
  TGI: > 100 µM
MALME-3M melanoma
  TGI: > 100 µM
MOLT-4 leukemia
  TGI: > 100 µM
NCI-H23 lung
  TGI: > 100 µM
NCI-H460 lung
  TGI: > 100 µM
NCI-H522 lung
  TGI: > 100 µM
OVCAR-3 ovarian
  TGI: > 100 µM
OVCAR-4 ovarian
  TGI: > 100 µM
OVCAR-5 ovarian
  TGI: > 100 µM
OVCAR-8 ovarian
  TGI: > 100 µM
RPMI-8226 leukemia
  TGI: > 100 µM
RXF 393 renal
  TGI: > 100 µM
SF-268 CNS
  TGI: > 100 µM
SF-295 CNS
  TGI: > 100 µM
SF-539 CNS
  TGI: > 100 µM
SK-MEL-2 melanoma
  TGI: > 100 µM
SK-MEL-28 melanoma
  TGI: > 100 µM
SK-MEL-5 melanoma
  TGI: > 100 µM
SK-OV-3 ovarian
  TGI: > 100 µM
SN12C renal
  TGI: > 100 µM
SNB-19 CNS
  TGI: > 100 µM
SNB-75 CNS
  TGI: > 100 µM
SNB-78 CNS
  TGI: > 100 µM
SW-620 colon
  TGI: > 100 µM
TK-10 renal
  TGI: > 100 µM
U251 CNS
  TGI: > 100 µM
UACC-257 melanoma
  TGI: > 100 µM
UACC-62 melanoma
  TGI: > 100 µM
UO-31 renal
  TGI: > 100 µM
XF 498 CNS
  TGI: > 100 µM
